Data on 6 molecules can be found in EP0563127B1, “IMPROVED TREATMENT METHOD FOR CANCER” (priority 1990, dated 1992).

The structures appear in SMILES notation. Where two headings read alike, the source gives them in different places.

One series relates to C-3 fibrosarcoma cells. In words: In vivo augmentation of adriamycin anti-tumor activity in a murine sarcoma model. Also noted: species or system C3H mice. Conditions: intraperitoneally day 1, followed 60 days. The protocol:
C-3 fibrosarcoma cells (3 x 10⁵) were injected into the left gluteal region of C3H mice on day 0. On day 1, the mice were provided with treatment by a combination of DPPE and adriamycin, administered intraperitoneally. The DPPE was administered 60 minutes prior to administration of the adriamycin. Mice also were administered with saline, DPPE alone and adriamycin alone.
Animals in the experiments (n=12) were followed for 60 days. At the end of the experimental period, those animals free of palpable tumors were considered cured.

A further series concerns bone marrow progenitors. Conditions: for R.C.S. / R.C.S. (Relative Cell Survival): saline = 1.0; for CFU-C/10⁴ cells (No. of bone marrow colonies) / R.C.S. (Relative Cell Survival): 5FU lethal dose (7.5mg) alone. The procedure:
The DPPE and saline were administered 90 minutes prior to the 5FU. Bone marrow cell counts were made at 24 hours and 48 hours post administration.
Experiments paralleling those described above with 5FU were carried out employing a lethal dose of adriamycin (20mg/kg).

The subject of another series is B16 melanoma cells. Put plainly: In vivo augmentation of BCNU anti-tumor activity in a B16 melanoma lung metastasis model. Also noted: species or system C57Bl mice. To be noted: for (% control) of lung metastases / Numbers of lung metastases / Median Survival: intraperitoneal day 1; for (% control) of lung metastases / Numbers of lung metastases: lungs at day 14; for Numbers of lung metastases: saline 241; for Median Survival: saline 19; for Size of lung metastases: Macro means visually determined, Micro means microscopically only. The procedure:
5 x 10⁴ B16 melanoma cells were injected intravenously into the tail vein of C57Bl mice at day 0. The mice were treated with either saline, 32mg/kg of DPPE, 1mg of BCNU or a combination of 32mg/kg of DPPE and 1mg of BCNU, by intraperitoneal injection on day 1. The DPPE was administered 60 minutes before the BCNU.
In each group, six of the twelve animals were sacrificed at day 14 and lungs were removed for determination of metastasis. The remaining six animals were followed to death. The numbers and size of the lung metastases were determined by visual or microscope count.

Another series relates to B16f10 melanoma cells. In words: In vivo augmentation of daunorubicin anti-tumor activity in a B16 melanoma lung metastasis model. Also on record: species or system mice. Conditions: Daunorubicin 12.5 mg/kg alone, 24 hours after cells. The protocol: The procedure of Example III was repeated employing daunorubicin in place of BCNV. Groups of six mice were injected with B16f10 melanoma cells and 24 hours later received saline, 4 mg/kg of DPPE alone, a non-lethal dose of daunorubicin alone (12.5 mg/kg) or DPPE (4, 25 or 50 mg/kg) one hour prior to daunorubicin (12.5 mg/kg). All animals were followed to death or for 60-days post injection, and sacrificed for lung metastases.

The conditions of series [1]: administered five hours or more prior to the chemotherapeutic agent; cited from earlier work.
For another series, the system named is DBA/2 mice. Put plainly: In vivo host cytoprotection from a lethal dose of adriamycin. Conditions: DPPE 2 mg/kg 1 hour (n=12) or 15 minutes (n=6) prior to 15 mg/kg of adriamycin, after 30 days. The procedure: Saline or DPPE (2 mg/kg) were administered to DBA/2 mice 1 hour (n=12) or 15 minutes (n=6) prior to administration of 15 mg/kg of adriamycin. The number of survivors after 30 days was determined.

For series [2], the system named is Spleen cells from BALB/C mice. Put plainly: Thymidine incorporation into DNA of Concanavalin A-stimulated lymphocytes. Type of series: cell-based. The procedure: Spleen cells from BALB/C mice were stimulated with Concanavalin A (5 µg/ml) for thymidine incorporation. The cells then were treated with varying does of DPPE and the level of thymidine incorporated was determined. The results were plotted graphically and appear as Figure 1.
The experiment was repeated using 2.5 µg/ml of Concanavalin A in place of 5 µg/ml and 2% fetal calf serum in place of 10%. The results obtained are illustrated in Figure 2.

In series [3] the test system is virally-infected non-senescing transformed spleen-derived lymphocytes (S-10). In words: Thymidine incorporation and cytotoxicity in virally-infected transformed lymphocytes. Type of series: cell-based, BALB/C origin. The protocol: The experiment of Example VI was repeated employing virally-infected non-senescing transformed spleen-derived lymphocytes (S-10) also of BALB/C origin with 0.25 nM of ³H-thymidine added. The results were plotted graphically and appear as Figures 3 and 4 respectively. As may be seen therein, in contrast to Figures 1 and 2, 25 µM of DPPE caused approximately 50% cytotoxicity to the virally-infected cells. When adjusted for cell number, thymidine incorporation increased at cytotoxic concentrations of DPPE (10 to 25 µM).

Series [4] deals with human breast cancer cell (MCF-7). Put plainly: Thymidine incorporation and cytotoxicity in breast cancer cells. Type of series: cell-based. To be noted: 0.25 nM of thymidine, Figure 5. The protocol: The experiment was again repeated using human breast cancer cell (MCF-7) with 0.25 nM of thymidine added. The results were plotted graphically and appear as Figure 5.
Series [5] relates to patients with advanced cancer. Put plainly: Clinical study in patients with advanced cancer. The procedure: A clinical study was carried out with 14 patients with advanced cancer. • (a) DPPE alone was administered to patients to determine a safe dose range in humans.
Another series relates to prostaglandin (PG)I₂. Put plainly: Prostaglandin level in the gut after DPPE treatment. Type of series: in vivo. The source says: In addition, the antagonism results in an increase in the levels of prostaglandins (natural substances which are known to protect tissues from various injurious agents) in the tissue. For example, DPPE treatment results in an increase by 500% in prostaglandin (PG)I₂, a protective prostaglandin, in the gut.

The test system of another series is certain B cells. In words: Interleukin-2 stimulated antibody formation in B cells. Type of series: cell-based. From the text:
As with bone marrow cells, the treatment of normal proliferating lymphocytes (immune cells), according to the invention, results in a dose-dependent blocking of DNA synthesis and a shut-down of these cells without causing cytotoxicity. The antagonist has an effect on both T-lymphocytes and B-lymphocytes in the immune system. […] DPPE also blocks the stimulation of antibody formation by the mediator interleukin-2 in certain B cells, resulting is a decrease in antibody formation.

For another series, the system named is ulcer formation. Conditions: in the presence of noxious agents, such as alcohol and cysteamine; see US-A-4,829,068; cited from earlier work.
The test system of another series is malignant cells. To be noted: as described in US-A- No. 4,803,227; cited from earlier work.
Where [6] appears, read: Adriamycin lethal dose (20mg/kg) alone, 24h.
Where [7] appears, read: Adriamycin lethal dose (20mg/kg) alone, 48h.
Where [8] appears, read: 25 µM DPPE, Concanavalin A 5 µg/ml, 10% fetal calf serum, Figure 1.
Where [9] appears, read: DPPE 0.2 mg/kg daily, patients treated with Adriamycin (60 mg/m²).

Consider `COc1cccc2c1C(=O)c1c(O)c3c(c(O)c1C2=O)C[C@@](O)(C(=O)CO)C[C@@H]3O[C@H]1C[C@H](N)[C@H](O)[C@H](C)O1` [Adriamycin, doxorubicin], for which the “Number of Mice Tumor-Free (n=12)” value in the series with C-3 fibrosarcoma cells (Adriamycin 2mg/kg alone) turned out to be 0. Moreover, the CFU-C/10⁴ cells with bone marrow progenitors (setting [6]) was determined as 1.8 CFU-C/10⁴ cells; with bone marrow progenitors (setting [7]), 0.65 CFU-C/10⁴ cells. Further, the values for the R.C.S. in the series with bone marrow progenitors (setting [6]) and with bone marrow progenitors (setting [7]) were 0.04 and 0.006, respectively.

Take `O=NN(CCCl)C(=O)NCCCl` [BCNU, reference compound]: in the series on B16 melanoma cells (BCNU 1mg alone), the “(% control) of lung metastases” value turned out to be 60%, the “Numbers of lung metastases” value turned out to be 144, the “Median Survival” value worked out at 24 days and the “Size of lung metastases” value was “All Macro”.

With `COc1cccc2c1C(=O)c1c(O)c3c(c(O)c1C2=O)C[C@@](O)(C(C)=O)C[C@@H]3O[C@H]1C[C@H](N)[C@H](O)[C@H](C)O1` [Daunorubicin, daunorubicin], the “No. Cures (n=6)” value in the series with B16f10 melanoma cells (followed 60 days) was determined as 0. Moreover, the “Median Survival” value in the series on B16f10 melanoma cells (followed to death or 60 days, saline 17) came out at 25 days.

On to `O=c1[nH]cc(F)c(=O)[nH]1` [5FU, 5-fluorouracil], for which, in the series with bone marrow progenitors (24h), the “CFU-C/10⁴ cells (No. of bone marrow colonies)” value amounted to 0.2 CFU-C/10⁴ cells and the “R.C.S. (Relative Cell Survival)” value was found to be 0.006. In addition, in the series with bone marrow progenitors (48h), the “CFU-C/10⁴ cells (No. of bone marrow colonies)” value amounted to 0.09 CFU-C/10⁴ cells and the “R.C.S. (Relative Cell Survival)” value is 0.002.

Regarding `N[C@H](CO)Cc1c[nH]cn1` [L-histidinol], the effective doses result in series [1] is recorded as “approximately 1000 mg/kg of tissue”.

Take `CCN(CC)CCOc1ccc(Cc2ccccc2)cc1` [DPPE, N,N-diethyl-2-[4-(phenylmethyl)-phenoxy]ethanamine]: in the series on C-3 fibrosarcoma cells (DPPE 50mg/kg alone), the “Number of Mice Tumor-Free (n=12)” value was 0. Further, in the series with bone marrow progenitors (DPPE 4mg/kg alone, 24h), the CFU-C/10⁴ cells was 42.3 CFU-C/10⁴ cells and the R.C.S. came out at 0.97. In the series with bone marrow progenitors (DPPE 4mg/kg alone, 48h), the CFU-C/10⁴ cells stood at 41.3 CFU-C/10⁴ cells and the R.C.S. is 0.97. Further, in the series with B16 melanoma cells (DPPE 32mg/kg alone), the “(% control) of lung metastases” value was determined as 91%, the “Numbers of lung metastases” value came out at 219, the “Median Survival” value was found to be 21 days and the “Size of lung metastases” value is “All Macro”. In addition, in the series on DBA/2 mice (saline group 4/12), the “Number of Survivors” value is listed as 13/18. The “Number of Survivors (percent)” value with DBA/2 mice (saline group 33%) is 72%. Besides, in series [2] (setting [8]), the cell survival entry is reported as “does not adversely affect” and the “thymidine incorporation into DNA” value is on record as “completely blocks”. Further, the “concentrations of DPPE which inhibited DNA synthesis” value in series [2] (Concanavalin A 2.5 µg/ml, 2% fetal calf serum, Figure 2) is on record as 5 µm. The cytotoxicity entry in series [2] (at 5 µm DPPE, Concanavalin A 2.5 µg/ml, 2% fetal calf serum, Figure 2) is “no significant cytotoxicity”. Moreover, the “proliferation of T-lymphocytes” value in series [2] (in the presence of Concanavalin A) was “completely antagonize”. The “cytotoxicity to the virally-infected cells” value in series [3] (25 µM of DPPE, S-10 cells, Figures 3 and 4) is “approximately 50%”. Moreover, the “thymidine incorporation adjusted for cell number” value in [3] (at cytotoxic concentrations of DPPE (10 to 25 µM), 0.25 nM ³H-thymidine) is given as “increased”. The “cytotoxicity and thymidine incorporation compared with S-10 cells” value in [4] is “Analogous results”. For the same molecule, in series [5] (72-hour infusion of low dose DPPE, one patient), the mouth ulceration entry is on record as “prevented”. Further, the “acute and delayed gastrointestinal side effects of Adriamycin” value in [5] (DPPE 0.2 mg/kg daily as a 72-hour infusion, Adriamycin 60 mg/m², four patients, two treatments each) is “block completely”. In series [5] (DPPE 0.2 mg/kg daily, 24-hour infusion, first 24 to 48 hours following Adriamycin, delayed nausea, vomiting and/or anorexia at 72 or 96 hours in many patients), the anti-emetic effect result is on record as “effective anti-emetic therapy”. In addition, in series [5] (setting [9]), the “amelioration of nausea, vomiting, anorexia and stomatitis” value is “over 90%”; the “patients in whom nausea, vomiting, anorexia and stomatitis were prevented or ameliorated” value is 6/6. Moreover, the toxicity result in [5] (DPPE alone, 6 mg/kg administered IV over 2 hours) is on record as “significant toxicity was absent”. The highest non-toxic dosage in series [5] (DPPE alone, given intravenously over a one-hour period) came out at 4 mg/kg. In addition, the “effect on platelets, hemoglobin or biochemistry” value in series [5] (human, in vivo) was “No significant effect”. For the same molecule, in [5] (human, in vivo, 6 mg/kg), the CNS toxicity result was “dose limiting” and the “drop in body core temperature” value was 1-2 °C. The “threshold for CNS toxicity” value in series [5] (human, in vivo, 1 h) is 240 mg/M². In series [5] (human, in vivo, iv, 0.2 mg/kg), the “changes in biochemistries or blood counts” value is given as “not to cause any significant changes” and the clinical side effects result was “entirely without clinical side effects”. The “antiemetic effect against Adriamycin” value in series [5] (single iv doses of DPPE (1, 2, 4 mg/kg) given over 1 hour) is “significantly antiemetic”. The “increase in prostaglandin (PG)I₂ in the gut” value with prostaglandin (PG)I₂ is given as 500%. In addition, the “stimulation of antibody formation by interleukin-2” value in the series with certain B cells is “blocks”. Also, in the series with mice, the “threshold for CNS toxicity” value turned out to be 240 mg/M². For the same molecule, the ulcer formation entry with ulcer formation is reported as “completely block”. In addition, the “effect on malignant cells in vitro” value in the series with malignant cells was “damages and/or kills”.
